Measurements: the CheMixHub ionic liquid set
± gives the uncertainty stated by the source. Each block holds one molecule with its values, some of them ahead of it.

Assay: xn = mol fraction of the nth substance listed

viscosity (298.15 K, 100 kPa, x1 = 0.06665): 2.86 ± 0.29 mPa·s
SMILES: CC(O)C(=O)[O-].CN(C)CCOCC[NH+](C)C + O

viscosity (298.15 K, 101 kPa, x1 = 3.604e-05): 0.895 ± 0.019 mPa·s | viscosity (298.15 K, 101 kPa, x1 = 9.009e-05): 0.903 ± 0.019 mPa·s | viscosity (298.15 K, 101 kPa, x1 = 0.0001441): 0.913 ± 0.019 mPa·s | viscosity (298.15 K, 101 kPa, x1 = 0.0001802): 0.916 ± 0.019 mPa·s | viscosity (298.15 K, 101 kPa, x1 = 0.0002702): 0.929 ± 0.019 mPa·s | viscosity (298.15 K, 101 kPa, x1 = 0.0003603): 0.938 ± 0.019 mPa·s | viscosity (298.15 K, 101 kPa, x1 = 0.0004503): 0.947 ± 0.02 mPa·s | viscosity (298.15 K, 101 kPa, x1 = 0.0005403): 0.956 ± 0.02 mPa·s | viscosity (303.15 K, 101 kPa, x1 = 3.604e-05): 0.796 ± 0.017 mPa·s | viscosity (303.15 K, 101 kPa, x1 = 9.009e-05): 0.807 ± 0.017 mPa·s | viscosity (303.15 K, 101 kPa, x1 = 0.0001441): 0.816 ± 0.017 mPa·s | viscosity (303.15 K, 101 kPa, x1 = 0.0001802): 0.822 ± 0.017 mPa·s | viscosity (303.15 K, 101 kPa, x1 = 0.0002702): 0.831 ± 0.017 mPa·s | viscosity (303.15 K, 101 kPa, x1 = 0.0003603): 0.839 ± 0.017 mPa·s | viscosity (303.15 K, 101 kPa, x1 = 0.0004503): 0.847 ± 0.018 mPa·s | viscosity (303.15 K, 101 kPa, x1 = 0.0005403): 0.854 ± 0.018 mPa·s | viscosity (308.15 K, 101 kPa, x1 = 3.604e-05): 0.714 ± 0.015 mPa·s | viscosity (308.15 K, 101 kPa, x1 = 9.009e-05): 0.726 ± 0.015 mPa·s | viscosity (308.15 K, 101 kPa, x1 = 0.0001441): 0.735 ± 0.015 mPa·s | viscosity (308.15 K, 101 kPa, x1 = 0.0001802): 0.74 ± 0.016 mPa·s | viscosity (308.15 K, 101 kPa, x1 = 0.0002702): 0.75 ± 0.016 mPa·s | viscosity (308.15 K, 101 kPa, x1 = 0.0003603): 0.758 ± 0.016 mPa·s | viscosity (308.15 K, 101 kPa, x1 = 0.0004503): 0.765 ± 0.016 mPa·s | viscosity (308.15 K, 101 kPa, x1 = 0.0005403): 0.773 ± 0.016 mPa·s | viscosity (313.15 K, 101 kPa, x1 = 3.604e-05): 0.647 ± 0.013 mPa·s | viscosity (313.15 K, 101 kPa, x1 = 9.009e-05): 0.658 ± 0.014 mPa·s | viscosity (313.15 K, 101 kPa, x1 = 0.0001441): 0.666 ± 0.014 mPa·s | viscosity (313.15 K, 101 kPa, x1 = 0.0001802): 0.673 ± 0.014 mPa·s | viscosity (313.15 K, 101 kPa, x1 = 0.0002702): 0.682 ± 0.014 mPa·s | viscosity (313.15 K, 101 kPa, x1 = 0.0003603): 0.688 ± 0.014 mPa·s | viscosity (313.15 K, 101 kPa, x1 = 0.0004503): 0.693 ± 0.015 mPa·s | viscosity (313.15 K, 101 kPa, x1 = 0.0005403): 0.699 ± 0.015 mPa·s | viscosity (318.15 K, 101 kPa, x1 = 3.604e-05): 0.587 ± 0.012 mPa·s | viscosity (318.15 K, 101 kPa, x1 = 9.009e-05): 0.595 ± 0.013 mPa·s | viscosity (318.15 K, 101 kPa, x1 = 0.0001441): 0.605 ± 0.013 mPa·s | viscosity (318.15 K, 101 kPa, x1 = 0.0001802): 0.61 ± 0.013 mPa·s | viscosity (318.15 K, 101 kPa, x1 = 0.0002702): 0.619 ± 0.013 mPa·s | viscosity (318.15 K, 101 kPa, x1 = 0.0003603): 0.623 ± 0.013 mPa·s | viscosity (318.15 K, 101 kPa, x1 = 0.0004503): 0.628 ± 0.013 mPa·s | viscosity (318.15 K, 101 kPa, x1 = 0.0005403): 0.632 ± 0.013 mPa·s
SMILES: CCCCCCCCCCCC[N+](C)(C)CC.[Br-] + O

Continued, molecule first:

SMILES: C=C[n+]1ccn(CCCC)c1.N[C@@H](Cc1c[nH]cn1)C(=O)[O-] + O
electrical conductivity (303.15 K, 101.3 kPa, x1 = 0.3): 3.56 ± 0.094 S/m | viscosity (303.15 K, 101.3 kPa, x1 = 0.3): 8.1 ± 0.2 mPa·s | electrical conductivity (303.15 K, 101.3 kPa, x1 = 0.9): 0.59 ± 0.1 S/m | viscosity (303.15 K, 101.3 kPa, x1 = 0.9): 1179 ± 380 mPa·s | electrical conductivity (323.15 K, 101.3 kPa, x1 = 1): 0.21 ± 0.002 S/m | viscosity (323.15 K, 101.3 kPa, x1 = 1): 1418 ± 480 mPa·s | viscosity (333.15 K, 101.3 kPa, x1 = 0.3): 4.19 ± 0.11 mPa·s | viscosity (343.15 K, 101.3 kPa, x1 = 0.7): 29.04 ± 0.7 mPa·s | viscosity (353.15 K, 101.3 kPa, x1 = 0.5): 12.68 ± 0.31 mPa·s

SMILES: CC(=O)[O-].CCCC[n+]1ccn(C)c1 + O
viscosity (293.15 K, 100 kPa, x2 = 0.1843): 559 ± 46 mPa·s | viscosity (293.15 K, 100 kPa, x2 = 0.3889): 298 ± 19 mPa·s | viscosity (293.15 K, 100 kPa, x2 = 0.5951): 124.3 ± 5.2 mPa·s | viscosity (293.15 K, 100 kPa, x2 = 0.8004): 32.1 ± 1 mPa·s | viscosity (298.15 K, 100 kPa, x2 = 0): 595 ± 50 mPa·s | viscosity (298.15 K, 101 kPa, x1 = 0.03479): 2.23 ± 0.14 mPa·s | viscosity (298.15 K, 101 kPa, x1 = 0.03897): 2.35 ± 0.14 mPa·s | viscosity (298.15 K, 101 kPa, x1 = 0.04311): 2.66 ± 0.14 mPa·s | viscosity (303.15 K, 100 kPa, x2 = 0): 400 ± 29 mPa·s | viscosity (303.15 K, 100 kPa, x2 = 0.1843): 262 ± 16 mPa·s | viscosity (303.15 K, 100 kPa, x2 = 0.3889): 150 ± 6.9 mPa·s | viscosity (303.15 K, 100 kPa, x2 = 0.5951): 68.8 ± 2.2 mPa·s | viscosity (303.15 K, 100 kPa, x2 = 0.8004): 19.69 ± 0.62 mPa·s | viscosity (303.15 K, 101 kPa, x1 = 0.03479): 2.18 ± 0.14 mPa·s | viscosity (303.15 K, 101 kPa, x1 = 0.03897): 2.29 ± 0.14 mPa·s | viscosity (303.15 K, 101 kPa, x1 = 0.04311): 2.63 ± 0.14 mPa·s | viscosity (308.15 K, 101 kPa, x1 = 0.03479): 2.16 ± 0.14 mPa·s | viscosity (308.15 K, 101 kPa, x1 = 0.03897): 2.25 ± 0.14 mPa·s | viscosity (308.15 K, 101 kPa, x1 = 0.04311): 2.56 ± 0.14 mPa·s | viscosity (313.15 K, 100 kPa, x2 = 0): 200 ± 11 mPa·s | viscosity (313.15 K, 100 kPa, x2 = 0.0171): 138.1 ± 5.2 mPa·s | viscosity (313.15 K, 100 kPa, x2 = 0.1843): 138.2 ± 6.2 mPa·s | viscosity (313.15 K, 100 kPa, x2 = 0.3889): 85 ± 3 mPa·s | viscosity (313.15 K, 100 kPa, x2 = 0.5951): 41.9 ± 1.3 mPa·s | viscosity (313.15 K, 100 kPa, x2 = 0.8004): 13.12 ± 0.41 mPa·s | viscosity (313.15 K, 101 kPa, x1 = 0.03479): 2.13 ± 0.14 mPa·s | viscosity (313.15 K, 101 kPa, x1 = 0.03897): 2.22 ± 0.14 mPa·s | viscosity (313.15 K, 101 kPa, x1 = 0.04311): 2.49 ± 0.14 mPa·s | viscosity (318.15 K, 101 kPa, x1 = 0.03479): 1.74 ± 0.14 mPa·s | viscosity (318.15 K, 101 kPa, x1 = 0.03897): 2.11 ± 0.14 mPa·s | viscosity (318.15 K, 101 kPa, x1 = 0.04311): 2.29 ± 0.14 mPa·s | viscosity (323.15 K, 100 kPa, x2 = 0): 111.7 ± 4.5 mPa·s | viscosity (323.15 K, 100 kPa, x2 = 0.1843): 79.7 ± 2.8 mPa·s | viscosity (323.15 K, 100 kPa, x2 = 0.3889): 51.8 ± 1.6 mPa·s | viscosity (323.15 K, 100 kPa, x2 = 0.5951): 26.97 ± 0.85 mPa·s | viscosity (323.15 K, 100 kPa, x2 = 0.8004): 9.09 ± 0.28 mPa·s | viscosity (323.15 K, 101 kPa, x1 = 0.03479): 1.58 ± 0.14 mPa·s | viscosity (323.15 K, 101 kPa, x1 = 0.03897): 2.07 ± 0.14 mPa·s | viscosity (323.15 K, 101 kPa, x1 = 0.04311): 2.26 ± 0.14 mPa·s | viscosity (328.15 K, 101 kPa, x1 = 0.03479): 1.51 ± 0.14 mPa·s | viscosity (328.15 K, 101 kPa, x1 = 0.03897): 1.91 ± 0.14 mPa·s | viscosity (328.15 K, 101 kPa, x1 = 0.04311): 2.02 ± 0.14 mPa·s | viscosity (333.15 K, 100 kPa, x2 = 0): 67.3 ± 2.2 mPa·s | viscosity (333.15 K, 100 kPa, x2 = 0.01197): 48.8 ± 1 mPa·s | viscosity (333.15 K, 100 kPa, x2 = 0.1843): 48.6 ± 1.6 mPa·s | viscosity (333.15 K, 100 kPa, x2 = 0.3889): 33.6 ± 1.1 mPa·s | viscosity (333.15 K, 100 kPa, x2 = 0.5951): 18.26 ± 0.57 mPa·s | viscosity (333.15 K, 101 kPa, x1 = 0.03479): 1.24 ± 0.14 mPa·s | viscosity (333.15 K, 101 kPa, x1 = 0.03897): 1.86 ± 0.14 mPa·s | viscosity (333.15 K, 101 kPa, x1 = 0.04311): 1.97 ± 0.14 mPa·s | viscosity (343.15 K, 100 kPa, x2 = 0): 41.6 ± 1.4 mPa·s | viscosity (343.15 K, 100 kPa, x2 = 0.1843): 32.4 ± 1 mPa·s | viscosity (343.15 K, 100 kPa, x2 = 0.3889): 23.31 ± 0.74 mPa·s | viscosity (343.15 K, 100 kPa, x2 = 0.5951): 13 ± 0.41 mPa·s | viscosity (353.15 K, 100 kPa, x2 = 0): 27.86 ± 0.91 mPa·s | viscosity (353.15 K, 100 kPa, x2 = 0.1843): 22.25 ± 0.71 mPa·s | viscosity (353.15 K, 100 kPa, x2 = 0.3889): 16.58 ± 0.53 mPa·s | viscosity (353.15 K, 100 kPa, x2 = 0.5951): 9.64 ± 0.3 mPa·s | viscosity (363.15 K, 100 kPa, x2 = 0): 19.87 ± 0.65 mPa·s | viscosity (363.15 K, 100 kPa, x2 = 0.1843): 15.93 ± 0.51 mPa·s | viscosity (363.15 K, 100 kPa, x2 = 0.5951): 7.37 ± 0.23 mPa·s | viscosity (373.15 K, 100 kPa, x2 = 0): 14.82 ± 0.48 mPa·s | viscosity (373.15 K, 100 kPa, x2 = 0.1843): 11.94 ± 0.38 mPa·s

SMILES: CC(=O)[O-].C[NH+](C)C + O
viscosity (298.15 K, 101 kPa, x1 = 0.5942): 2.59 ± 0.16 mPa·s | viscosity (298.15 K, 101 kPa, x1 = 0.8068): 2.64 ± 0.16 mPa·s | viscosity (298.15 K, 101 kPa, x1 = 0.8639): 2.66 ± 0.16 mPa·s

SMILES: CCCC[N+]1(C)CCCC1.N#C[N-]C#N + O
viscosity (298.15 K, 100 kPa, x2 = 0.8348): 8 ± 1.3 mPa·s | viscosity (318.15 K, 100 kPa, x2 = 0.5802): 9 ± 1.4 mPa·s | viscosity (323.15 K, 100 kPa, x2 = 0.6452): 7 ± 1.1 mPa·s | viscosity (333.15 K, 100 kPa, x2 = 0.5238): 7 ± 1.1 mPa·s | viscosity (338.15 K, 100 kPa, x2 = 0.371): 7.8 ± 1.3 mPa·s | viscosity (338.15 K, 100 kPa, x2 = 0.3756): 7.8 ± 1.3 mPa·s
